The values that follow come from patent US10092493B2, “Composition of skin external application for anti-aging” (AMOREPACIFIC CORPORATION, priority 2005, dated 2018).

In experiment [1] the target is T1, PPAR-α (Peroxisome Proliferator Activated Receptor-alpha) (Homo sapiens, UniProt Q07869).
T1 construct: expressed in transfected cells; host or cells: CV-1 monkey kidney epithelial cells (ATCC CCL 70)
T1 sequence (Q07869 1-468): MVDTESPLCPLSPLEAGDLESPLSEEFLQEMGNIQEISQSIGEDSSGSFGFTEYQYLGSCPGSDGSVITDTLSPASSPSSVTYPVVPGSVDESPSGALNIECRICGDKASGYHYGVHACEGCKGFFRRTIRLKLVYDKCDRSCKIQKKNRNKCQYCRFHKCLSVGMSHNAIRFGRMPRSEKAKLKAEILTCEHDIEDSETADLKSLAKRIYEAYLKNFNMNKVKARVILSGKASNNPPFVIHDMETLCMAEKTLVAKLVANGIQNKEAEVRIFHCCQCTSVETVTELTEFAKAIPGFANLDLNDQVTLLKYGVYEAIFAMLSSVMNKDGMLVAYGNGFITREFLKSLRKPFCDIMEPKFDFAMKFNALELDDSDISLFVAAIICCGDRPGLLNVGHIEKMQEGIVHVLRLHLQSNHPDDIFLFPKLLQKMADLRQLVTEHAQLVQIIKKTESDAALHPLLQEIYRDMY
The experiment can be described thus: Activation of PPAR-α, luciferase reporter in CV-1 cells. It is filed as cell-based. The note with it: 24 hours, negative control and non-treated group = 1.0. As to the method:
Monkey kidney epithelial cell line CV-1 (ATCC CCL 70) was subcultured in a DMEM medium containing 10% fetal bovine serum treated with charcol/dextran, which was a phenol red-free medium to remove the effect by estrogen of phenol red.
CV-1 cells were distributed in a 24-well plate type incubator at a concentration of 5×10^4. After 24 hours cultivation, the 3 different plasmids were transient transfected. After 24 hours cultivation, the plate was washed with 1×PBS (Phosphate Buffered Saline) and treated with ligand candidates at various concentrations. After 24 hours cultivation, the plate was washed with 1×PBS and the cells were lyzed with 1×PLB (Passive Lysis Buffer) and measured for luciferase activity using Dual-Luciferase® Reporter Assay System kit.

Experiment [2] relates to Tumor Necrosis Factor alpha (TNF-α). The experiment can be described thus: Inhibition of TNF-α biosynthesis after UV irradiation (ELISA). The settings on record: human keratinocytes, UV-B 30 mJ/cm^2, 10 μM (10 ppm of extract), 6 to 24 hours; UV control = 100. It is filed as cell-based. As to the method: Human keratinocytes were cultured in a 12-well plate type incubator at a concentration of 10^4. The plate was irradiated by UV-B at 30 mJ/cm^2. The media were exchanged with new medium containing 10 μM of each test substance (10 ppm of extract). After 6 to 24 hours of cultivation, the cells were harvested and subjected to ELISA (Pharmingen 555212) to determine the amount of produced tumor necrosis factor α (TNF-α). As the positive control, Wy-14,643 was used.

Experiment [3] concerns Type I Collagenase (MMP-1). The experiment can be described thus: Inhibition of type I collagenase (MMP-1) biosynthesis after UV-A irradiation, test substances (ELISA). It counts as cell-based. The settings on record: new born human fibroblasts, UV-A 15 J/cm^2, 10 μM or 10 ppm, UV negative control = 100; for Type I collagenase biosynthesis (%), UV-A + TNF-α treated group: plus TNF-α 10 ng/ml. Here is the method:
To describe the experiment method in detail, human fibroblasts isolated from the skin of a new born baby were cultured in a 48-well plate type incubator at a concentration of 10^4. After 24 hours, the plate was irradiated by UV-A at 15 J/cm^2. […] At the second day of cultivation, the supernatants were harvested and subjected to ELISA (AP biotech RPN2610) to determine the amount of produced type I collagenase. As the positive control, Wy-14,643 and retinoic acid (RA) were used.

Experiment [4] deals with pro-collagen. Put plainly: Biosynthesis of collagen (pro-collagen ELISA) in fibroblasts. The settings on record: 48 hours, un-treated control = 100. It counts as cell-based, Human. Here is the method:
Human fibroblasts were cultured in a 48-well plate type incubator at a concentration of 10^4. The media were exchanged with new medium (theanine: 1, 10, 100 um) containing each test substance of Table 7 at a concentration of 0.001 μM, 0.01 μM, 0.1 μM, 0.5 μM and 2 μM. After 48 hours of cultivation, each supernatant was harvested and subjected to ELISA (Takara MK101) to measure the amount of produced pro-collagen.
Also, in order to examine the synergic effect of theanine on collagen biosynthesis, theanine 10 μM was added to catechin at different 4 concentrations and the result is shown in Table 8.

As to `Oc1cc(O)c2c(c1)OC(c1ccc(O)c(O)c1)C(O)C2` (single isomer, unassigned; (-)) [(−) C, (−)catechin], the results for the PPAR-α activity in experiment [1] (10 μM) and in experiment [1] (100 μM) were 1.4 and 1.2, respectively.

On to `Oc1cc(O)c2c(c1)O[C@@H](c1ccc(O)c(O)c1)[C@@H](O)C2` [(+) EC, (+)epicatechin], for which the PPAR-α activity is given as 1.3 in experiment [1] (10 μM) and 1.2 in experiment [1] (100 μM).

Regarding `O=C(O)c1cc(O)c(O)c(O)c1` [Gallic acid], the “TNF-α biosynthesis (%)” value in experiment [2] came out at 36%. In addition, in experiment [3], the “Type I collagenase biosynthesis (%), UV-A + TNF-α treated group” value stood at 89% and the “Type I collagenase biosynthesis (%), UV-A irradiated group” value is recorded as 52%. In experiment [1] (10 μM), this compound returned a PPAR-α activity of 1.3. The PPAR-α activity in experiment [1] (100 μM) is 1.7.

With `Oc1cc(O)c2c(c1)O[C@H](c1ccc(O)c(O)c1)[C@H](O)C2` [(−) EC, (−)epicatechin], the PPAR-α activity in experiment [1] (10 μM) and in experiment [1] (100 μM) was 1.2 in each case.

With `CCNC(=O)CC[C@H](N)C(=O)O` [Theanine], in experiment [2], the “TNF-α biosynthesis (%)” value came to 30%. For the same compound, the Collagen biosynthesis in experiment [4] (10 μM) came out at 132.1; in experiment [4] (100 μM), 167.5. Besides, the “Type I collagenase biosynthesis (%), UV-A + TNF-α treated group” value in experiment [3] came to 95%. In addition, the “Type I collagenase biosynthesis (%), UV-A irradiated group” value in experiment [3] was 60%. The PPAR-α activity in experiment [1] (10 μM) came out at 1.8; in experiment [1] (100 μM), 1.9.

On to `Cn1c(=O)c2[nH]cnc2n(C)c1=O` [Theophylline, reference compound], for which the “TNF-α biosynthesis (%)” value in experiment [2] is listed as 36%. Further, in experiment [3], the “Type I collagenase biosynthesis (%), UV-A + TNF-α treated group” value amounted to 92% and the “Type I collagenase biosynthesis (%), UV-A irradiated group” value is recorded as 40%. In addition, the PPAR-α activity in experiment [1] (10 μM) is 1.4. For the same compound, the PPAR-α activity in experiment [1] (100 μM) is 1.7.

As for `CC1=C(/C=C/C(C)=C/C=C/C(C)=C/C(=O)O)C(C)(C)CCC1` [RA, retinoic acid, reference compound], in experiment [3], the “Type I collagenase biosynthesis (%), UV-A + TNF-α treated group” value was found to be 86% and the “Type I collagenase biosynthesis (%), UV-A irradiated group” value is 48%.

In the case of `Cn1cnc2c1c(=O)[nH]c(=O)n2C` [Theobromine], the “TNF-α biosynthesis (%)” value in experiment [2] stood at 25%. Besides, in experiment [3], the “Type I collagenase biosynthesis (%), UV-A + TNF-α treated group” value is 90% and the “Type I collagenase biosynthesis (%), UV-A irradiated group” value turned out to be 32%. Also, the PPAR-α activity in experiment [1] (10 μM) is 2.2. Further, the PPAR-α activity in experiment [1] (100 μM) amounted to 4.5.

Turning to `O=c1c(O)c(-c2ccc(O)c(O)c2)oc2cc(O)cc(O)c12` [Quercetin, quercetin], the “TNF-α biosynthesis (%)” value in experiment [2] was determined as 27%. The “Type I collagenase biosynthesis (%), UV-A + TNF-α treated group” value in experiment [3] amounted to 91%. Moreover, in experiment [3], the “Type I collagenase biosynthesis (%), UV-A irradiated group” value stood at 35%. Besides, the PPAR-α activity turned out to be 1.7 in experiment [1] (10 μM) and 2.3 in experiment [1] (100 μM).

Turning to `Oc1cc(O)c2c(c1)O[C@H](c1cc(O)c(O)c(O)c1)[C@H](O)C2` [(−) EGC, epigallocatechin], the values for the PPAR-α activity in experiment [1] (10 μM) and in experiment [1] (100 μM) were 1.3 and 1.0, respectively.

Consider `Cc1cccc(Nc2cc(Cl)nc(SCC(=O)O)n2)c1C` [Wy14643, Wy-14,643, reference compound], for which the “TNF-α biosynthesis (%)” value in experiment [2] is recorded as 30%. The “Type I collagenase biosynthesis (%), UV-A + TNF-α treated group” value in experiment [3] is recorded as 92%. In addition, the “Type I collagenase biosynthesis (%), UV-A irradiated group” value in experiment [3] is 60%. In addition, the values for the PPAR-α activity in experiment [1] (0.1 μM), in experiment [1] (1 μM) and in experiment [1] (10 μM) were 1.5, 2.6 and 3.8, respectively.

With `O=C(O[C@@H]1Cc2c(O)cc(O)cc2O[C@@H]1c1ccc(O)c(O)c1)c1cc(O)c(O)c(O)c1` [(−) ECG, epicatechin gallate], in experiment [2], the “TNF-α biosynthesis (%)” value was determined as 32%. Further, the Collagen biosynthesis was determined as 100.5 in experiment [4] (0.001 μM); 181.7 in experiment [4] (0.01 μM); 165.3 in experiment [4] (0.1 μM); 124.5 in experiment [4] (0.5 μM); 77.8 in experiment [4] (2 μM). Moreover, the “Type I collagenase biosynthesis (%), UV-A + TNF-α treated group” value in experiment [3] worked out at 87%. For the same compound, the “Type I collagenase biosynthesis (%), UV-A irradiated group” value in experiment [3] came to 45%. Also, the PPAR-α activity in experiment [1] (10 μM) was found to be 1.1; in experiment [1] (100 μM), 1.6.

Consider `Oc1cc(O)c2c(c1)O[C@H](c1cc(O)c(O)c(O)c1)[C@@H](O)C2` [(−) GC, gallocatechin], for which the results for the PPAR-α activity in experiment [1] (10 μM) and in experiment [1] (100 μM) were 1.1 and 1.0, respectively.

Consider `O=c1c(O)c(-c2ccc(O)cc2)oc2cc(O)cc(O)c12` [Kaempferol, kaempferol], for which, in experiment [2], the “TNF-α biosynthesis (%)” value is listed as 41%. The “Type I collagenase biosynthesis (%), UV-A + TNF-α treated group” value in experiment [3] was determined as 94%. The “Type I collagenase biosynthesis (%), UV-A irradiated group” value in experiment [3] came out at 48%. Moreover, the PPAR-α activity in experiment [1] (10 μM) is recorded as 1.7; in experiment [1] (100 μM) it was 1.4.

Regarding `O=C(O)[C@]1(O)C[C@@H](O)[C@@H](O)[C@H](O)C1` [Quinic acid], in experiment [2], the “TNF-α biosynthesis (%)” value is on record as 35%. Further, in experiment [3], the “Type I collagenase biosynthesis (%), UV-A + TNF-α treated group” value is 98% and the “Type I collagenase biosynthesis (%), UV-A irradiated group” value is 75%. The PPAR-α activity in experiment [1] (10 μM) was determined as 1.3. Besides, in experiment [1] (100 μM), the PPAR-α activity came out at 1.7.

With `Oc1cc(O)c2c(c1)O[C@H](c1ccc(O)c(O)c1)[C@@H](O)C2` [(+) C, (+)catechin], the “TNF-α biosynthesis (%)” value in experiment [2] is 40%. Also, the “Type I collagenase biosynthesis (%), UV-A + TNF-α treated group” value in experiment [3] is on record as 86%. Besides, the “Type I collagenase biosynthesis (%), UV-A irradiated group” value in experiment [3] is given as 45%. Also, the results for the PPAR-α activity in experiment [1] (10 μM) and in experiment [1] (100 μM) were 1.5 and 1.4, respectively.

Consider `Cn1c(=O)c2c(ncn2C)n(C)c1=O` [Caffeine, reference compound], for which the “TNF-α biosynthesis (%)” value in experiment [2] is given as 39%. Moreover, the “Type I collagenase biosynthesis (%), UV-A + TNF-α treated group” value in experiment [3] was 91%. The “Type I collagenase biosynthesis (%), UV-A irradiated group” value in experiment [3] came to 58%. Further, the PPAR-α activity in experiment [1] (10 μM) worked out at 1.3; in experiment [1] (100 μM), 1.6.
